Columns and labels:
Klebsiella pneumoniae [1] = assay: Growth inhibition of Klebsiella pneumoniae SIPI-KPN-1712 by broth microdilution method; format: organism-based; conditions: in vitro
Klebsiella pneumoniae [2] = assay: Synergistic antibacterial activity against Klebsiella pneumoniae SIPI-KPN-1712 assessed as polymixin B MIC at 4 ug/ml by broth microdilution method (reference value: 32 ug/ml); format: functional
Klebsiella pneumoniae [3] = assay: Synergistic antibacterial activity against Klebsiella pneumoniae SIPI-KPN-1712 assessed as fractional Inhibitory concentration index in presence of polymixin B at 2 ug/ml by broth microdilution method; format: functional

| Compound | MIC (Klebsiella pneumoniae [2]) [µg/mL] | MIC (Klebsiella pneumoniae [1]) [µg/mL] | fractional inhibitory concentration index (FICI) (Klebsiella pneumoniae [3]) |
| --- | --- | --- | --- |
| COC1CCCc2nc(Nc3cccc(C)c3C)sc21 (centres undefined) | 32 | > 128 | 1.03 |
| COC1CCCc2nc(Nc3ccc(O)cc3)sc21 (centres undefined) | 32 | > 128 | 1.03 |
| Cc1ccc(Nc2nc3c(s2)C(O)CCC3)cc1 (centres undefined) | 32 | > 128 | 1.03 |
| COC1CCCc2nc(Nc3ccccc3C)sc21 (centres undefined) | 32 | > 128 | 1.03 |
| CCOC1CCCc2nc(Nc3ccc4ccccc4n3)sc21 (centres undefined) | 32 | > 128 | 1.03 |
| COC1CCCc2nc(Nc3cccc(C)c3)sc21 (centres undefined) | 32 | > 128 | 1.03 |
| COC1CCCc2nc(NCc3ccccc3)sc21 (centres undefined) | 32 | > 128 | 1.03 |
| COC1CCCc2nc(Nc3ccccc3)sc21 (centres undefined) | 32 | > 128 | 1.03 |
| Clc1ccc(Nc2nc3ccccc3s2)cc1 | 32 | > 128 | 1.03 |
| CCc1ccc(Nc2nc3c(s2)C(OC)CCC3)cc1 (centres undefined) | 32 | > 128 | 1.03 |
| O=C(OC1CCCc2nc(Nc3ccc(F)cc3)sc21)n1ccnc1 (centres undefined) | 32 | > 128 | 1.03 |
| FC(F)(F)c1ccc2nc(Nc3ccccc3)sc2c1 | 16 | > 128 | 0.53 |
| Clc1ccc(Nc2nc3ccc(Cl)cc3s2)cc1 | 32 | > 128 | 1.03 |
| COC1CCCc2nc(Nc3ccc(Oc4ccc(F)cc4)cc3)sc21 (centres undefined) | 32 | > 128 | 1.03 |
| COC1CCCc2nc(Nc3ccc(Oc4ccccc4C)cc3)sc21 (centres undefined) | 16 | > 128 | 0.53 |
| COC1CCCc2nc(Nc3cccnc3)sc21 (centres undefined) | 16 | > 128 | 0.53 |
| Cc1ccc(Nc2nc3c(s2)C(OC(=O)n2ccnc2)CCC3)cc1 (centres undefined) | 32 | > 128 | 1.03 |
| CCCOC1CCCc2nc(Nc3ccc(F)cc3)sc21 (centres undefined) | 16 | > 128 | 0.53 |
| COC1CCCc2nc(Nc3cccc(C(F)(F)F)c3)sc21 (centres undefined) | 16 | > 128 | 0.53 |
| OC1CCCc2nc(Nc3ccc(Cl)cn3)sc21 (centres undefined) | 16 | > 128 | 0.53 |
| COC1CCCc2nc(NN3CCOCC3)sc21 (centres undefined) | 16 | > 128 | 0.53 |
| COC1CCCc2nc(Nc3ccc(C#N)cc3)sc21 (centres undefined) | 16 | > 128 | 0.53 |
| CCOC1CCCc2nc(Nc3ccc(Cl)cn3)sc21 (centres undefined) | 16 | > 128 | 0.53 |
| Cc1ccc(Nc2nc3c(s2)C(OC(C)C)CCC3)cc1 (centres undefined) | 16 | > 128 | 0.53 |
| CCCOC1CCCc2nc(Nc3ccc(C)cc3)sc21 (centres undefined) | 16 | > 128 | 0.53 |
| COCCOC1CCCc2nc(Nc3ccc(C)cc3)sc21 (centres undefined) | 32 | > 128 | 1.03 |
| COC1CCCc2nc(Nc3cccc(Br)c3)sc21 (centres undefined) | 16 | > 128 | 0.53 |

Further lines, with some results ahead:

| MIC (Klebsiella pneumoniae [2]) [µg/mL] | Compound | MIC (Klebsiella pneumoniae [1]) [µg/mL] | fractional inhibitory concentration index (FICI) (Klebsiella pneumoniae [3]) |
| --- | --- | --- | --- |
| 1 | CCOC1CCCc2nc(Nc3ccc(Cl)cc3)sc21 (centres undefined) | > 128 | 0.06 |
| 2 | CCOC1CCCc2nc(Nc3ccc(Br)cc3)sc21 (centres undefined) | > 128 | 0.09 |
| 16 | OC1CCCc2nc(Nc3ccc4ccccc4c3)sc21 (centres undefined) | > 128 | 0.53 |
| 16 | O=C(OC1CCCc2nc(Nc3ccccc3)sc21)n1ccnc1 (centres undefined) | > 128 | 0.53 |
| 16 | COC1CCCc2nc(Nc3ccccc3C(F)(F)F)sc21 (centres undefined) | > 128 | 0.53 |
| 16 | CC(=O)c1ccc(Nc2nc3c(s2)C(O)CCC3)cc1 (centres undefined) | > 128 | 0.53 |
| 16 | COC1CCCc2nc(Nc3ccc(N(C)C)cc3)sc21 (centres undefined) | > 128 | 0.53 |
| 16 | CCOC1CCCc2nc(Nc3ncccn3)sc21 (centres undefined) | > 128 | 0.53 |
| 4 | CCCC(CCC)OC1CCCc2nc(Nc3ccc(Cl)cc3)sc21 (centres undefined) | > 128 | 0.16 |
| 16 | COC1CCCc2nc(Nc3ccc(C#N)c(C(F)(F)F)c3)sc21 (centres undefined) | > 128 | 0.53 |
| 16 | COc1cc(Nc2nc3c(s2)C(OC)CCC3)cc(OC)c1OC (centres undefined) | > 128 | 0.53 |
| 16 | COC1CCCc2nc(Nc3ccc([N+](=O)[O-])cc3)sc21 (centres undefined) | > 128 | 0.53 |
| 16 | COC1CCCc2nc(Nc3ccc(C(C)(C)C)cc3)sc21 (centres undefined) | > 128 | 0.53 |
| 16 | OC1CCCc2nc(Nc3ccc(C(F)(F)F)cc3)sc21 (centres undefined) | > 128 | 0.53 |
| 1 | COC1CCCc2nc(Nc3ccc(Cl)cc3)sc21 (centres undefined) | > 128 | 0.06 |
| 8 | COC1CCCc2nc(Nc3cccc(Cl)c3)sc21 (centres undefined) | > 128 | 0.28 |
| 16 | COC1CCCc2nc(Nc3ccc(C(C)=O)cc3)sc21 (centres undefined) | > 128 | 0.53 |
| 16 | COC1CCCc2nc(Nc3ncccn3)sc21 (centres undefined) | > 128 | 0.53 |
| 4 | COC1CCCc2nc(Nc3ccnc(Cl)c3)sc21 (centres undefined) | > 128 | 0.16 |
| 8 | COC1CCCc2nc(Nc3ccc(C(F)(F)F)cc3)sc21 (centres undefined) | > 128 | 0.28 |
| 8 | COC1CCCc2nc(Nc3ccc(Cl)cc3Cl)sc21 (centres undefined) | > 128 | 0.28 |
